Common to all, as to type: cell-based
For assay [1], the target named is T1, CFTR G551D mutant (Homo sapiens, UniProt P13569, G551D).
T1 construct: expressed in transfected cells; host or cells: HEK293 (reverse transfection with plasmids)
The assay can be described thus: YFP-halide influx assay for the CFTR-G551D mutation (HEK293 cells). Particulars: read-out: EC50 measured by YFP-halide influx assay for the CFTR-G551D. An excerpt:
6.3. YFP-Halide Influx Assay for the CFTR-G551D Mutation
The YFP halide influx assay measures the functionality of the cystic fibrosis Transmembrane Conductance regulator (CFTR) channels. The assay is used to evaluate the capacity of compounds to increase the channel opening of existing mutant CFTR channels in the membrane. It makes use of the observation that the yellow fluorescent protein (YFP) variant YFP H148Q, I152L, F47L has its fluorescence substantially quenched by halide ions like Cl^− and I^−. (Galietta et al., 2001)
For this purpose, HEK293-cells are seeded in 96 well plates. During seeding, the cells are reverse-transfected with plasmid vectors that direct the expression of the CFTR G551D mutant and of the YFP reporter. Cells are incubated at 37° C., 5% CO2 for 24 hours so as to allow for sufficient expression of the CFTR protein.
The I^−-induced quenching of fluorescence is recorded immediately after injection of I^− for 7 seconds. The capacity of a compound to increase the channel opening is directly correlated with the decrease in fluorescence, and is expressed as (1−(fluorescence after 7 seconds (F)/fluorescence before injection (F0))) and an EC50 can be derived from a (1−F/F0) vs compound concentration plot.

The target of assay [2] is T2, CFTR ΔF508 mutant (Homo sapiens, UniProt P13569, DEL508-508).
T2 construct: expressed in transfected cells; host or cells: CFBE41o- (adenoviral transduction)
T2 sequence (P13569 with tags, fused parts or gaps DEL508-508): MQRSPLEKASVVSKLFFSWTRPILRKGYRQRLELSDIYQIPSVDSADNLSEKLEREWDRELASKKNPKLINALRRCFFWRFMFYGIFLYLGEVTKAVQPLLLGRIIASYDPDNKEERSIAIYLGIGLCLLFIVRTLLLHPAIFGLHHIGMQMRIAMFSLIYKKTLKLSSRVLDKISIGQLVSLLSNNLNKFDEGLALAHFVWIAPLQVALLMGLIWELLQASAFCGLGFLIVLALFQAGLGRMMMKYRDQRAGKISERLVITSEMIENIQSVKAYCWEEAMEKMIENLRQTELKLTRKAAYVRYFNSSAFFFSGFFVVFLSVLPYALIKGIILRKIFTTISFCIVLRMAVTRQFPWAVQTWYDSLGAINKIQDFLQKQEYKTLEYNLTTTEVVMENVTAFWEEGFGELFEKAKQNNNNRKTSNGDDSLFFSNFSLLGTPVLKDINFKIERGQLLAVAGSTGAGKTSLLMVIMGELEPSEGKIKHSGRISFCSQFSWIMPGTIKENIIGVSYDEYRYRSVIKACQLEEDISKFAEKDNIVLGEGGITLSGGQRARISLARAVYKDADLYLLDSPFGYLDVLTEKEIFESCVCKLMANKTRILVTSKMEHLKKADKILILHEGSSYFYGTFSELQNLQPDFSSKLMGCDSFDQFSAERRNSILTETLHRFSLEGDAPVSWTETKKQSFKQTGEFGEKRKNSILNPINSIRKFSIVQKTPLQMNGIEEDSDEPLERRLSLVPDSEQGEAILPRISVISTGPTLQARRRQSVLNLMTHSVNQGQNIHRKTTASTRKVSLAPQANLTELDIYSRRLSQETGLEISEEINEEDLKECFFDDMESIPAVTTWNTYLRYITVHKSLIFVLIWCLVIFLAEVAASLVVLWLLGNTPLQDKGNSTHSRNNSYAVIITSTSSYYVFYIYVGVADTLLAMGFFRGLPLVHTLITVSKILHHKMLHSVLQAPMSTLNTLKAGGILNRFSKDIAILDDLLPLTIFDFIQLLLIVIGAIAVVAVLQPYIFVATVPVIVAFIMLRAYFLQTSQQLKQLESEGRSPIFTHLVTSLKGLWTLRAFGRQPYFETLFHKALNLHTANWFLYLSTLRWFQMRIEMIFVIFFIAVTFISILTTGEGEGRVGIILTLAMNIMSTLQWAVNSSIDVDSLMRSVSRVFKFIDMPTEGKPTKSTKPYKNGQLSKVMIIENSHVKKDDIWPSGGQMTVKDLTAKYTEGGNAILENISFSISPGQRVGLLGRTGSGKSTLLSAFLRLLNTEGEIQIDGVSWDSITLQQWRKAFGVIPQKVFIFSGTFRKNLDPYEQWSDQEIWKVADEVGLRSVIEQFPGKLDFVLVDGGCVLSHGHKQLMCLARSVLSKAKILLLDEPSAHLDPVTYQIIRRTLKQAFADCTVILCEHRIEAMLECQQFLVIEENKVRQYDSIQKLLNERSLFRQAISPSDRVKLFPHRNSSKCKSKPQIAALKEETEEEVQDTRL
The assay can be described thus: YFP-halide influx assay for the CFTR-ΔF508 mutation (96 well, CFBE41o- cells). Particulars: read-out: EC50 measured by YFP-halide influx assay for the CFTR-ΔF508. An excerpt: 6.1. YFP-Halide Influx Assay for the CFTR-ΔF508 Mutation
The YFP halide influx assay measures the functionality of the cystic fibrosis Transmembrane Conductance regulator (CFTR) channels in the cystic fibrosis bronchial epithelium cell line CFBE41o-. The assay is used to evaluate the capacity of compounds to increase the open probability of existing CFTR channels in the membrane. It makes use of the observation that the yellow fluorescent protein (YFP) variant YFP H148Q, I152L has its fluorescence substantially quenched by halide ions like Cl^− and I^−. (Galietta et al., 2001; Nagai et al., 2002)
For this purpose, CFBE410-cells are seeded in 96 well plates (6000 CFBE cells/well). One day after seeding, the CFBE cells are transduced with adenoviral vectors that direct the expression of the CFTR ΔF508 mutant and of the YFP reporter. Cells are incubated at 27° C., 5% CO2 for 24 hours so as to allow for the proper folding and migration to the membrane of the CFTR channel or treated with a CFTR modulator during 24 h at 37° C.
The […] quenching of fluorescence is recorded immediately after injection of I^− for 7 seconds. The capacity of a compound to increase the channel opening is directly correlated with the decrease in fluorescence, and is expressed as (1-(fluorescence after 7 seconds (F)/fluorescence before injection (F0))) and an EC50 can be derived from a (1−F/F0) vs compound concentration plot.

Assay [3] has as its target T2, CFTR ΔF508 mutant. Put plainly: YFP-halide influx assay for the CFTR-ΔF508 mutation (384 well, CFBE41o- cells, FDSS/μCell). As to conditions: forskolin 10.67 μM, fluorescence after 36 seconds, read-out: EC50 measured by YFP-halide influx assay for the CFTR-ΔF508. A digest of the protocol:
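CFBE41o- cells were adenovirally transduced with ΔF508 CFTR and the YFP H148Q/I152L reporter. Cells were then held 24 h at 27 °C or treated 24 h at 37 °C with a CFTR modulator. Iodide-induced quench was recorded for 2 min, and EC50 was derived from 1−F/F0 at 36 s against compound concentration.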

[4] abbreviates: HEK293 cells expressing CFTR G551D and YFP reporter, forskolin 10.67 μM.
Setting [5] is: compounds of the invention, 96 well, forskolin 10.67 μM.

Where two headings read alike, the source gives them in different places.

T1 sequence (P13569 whole entry G551D): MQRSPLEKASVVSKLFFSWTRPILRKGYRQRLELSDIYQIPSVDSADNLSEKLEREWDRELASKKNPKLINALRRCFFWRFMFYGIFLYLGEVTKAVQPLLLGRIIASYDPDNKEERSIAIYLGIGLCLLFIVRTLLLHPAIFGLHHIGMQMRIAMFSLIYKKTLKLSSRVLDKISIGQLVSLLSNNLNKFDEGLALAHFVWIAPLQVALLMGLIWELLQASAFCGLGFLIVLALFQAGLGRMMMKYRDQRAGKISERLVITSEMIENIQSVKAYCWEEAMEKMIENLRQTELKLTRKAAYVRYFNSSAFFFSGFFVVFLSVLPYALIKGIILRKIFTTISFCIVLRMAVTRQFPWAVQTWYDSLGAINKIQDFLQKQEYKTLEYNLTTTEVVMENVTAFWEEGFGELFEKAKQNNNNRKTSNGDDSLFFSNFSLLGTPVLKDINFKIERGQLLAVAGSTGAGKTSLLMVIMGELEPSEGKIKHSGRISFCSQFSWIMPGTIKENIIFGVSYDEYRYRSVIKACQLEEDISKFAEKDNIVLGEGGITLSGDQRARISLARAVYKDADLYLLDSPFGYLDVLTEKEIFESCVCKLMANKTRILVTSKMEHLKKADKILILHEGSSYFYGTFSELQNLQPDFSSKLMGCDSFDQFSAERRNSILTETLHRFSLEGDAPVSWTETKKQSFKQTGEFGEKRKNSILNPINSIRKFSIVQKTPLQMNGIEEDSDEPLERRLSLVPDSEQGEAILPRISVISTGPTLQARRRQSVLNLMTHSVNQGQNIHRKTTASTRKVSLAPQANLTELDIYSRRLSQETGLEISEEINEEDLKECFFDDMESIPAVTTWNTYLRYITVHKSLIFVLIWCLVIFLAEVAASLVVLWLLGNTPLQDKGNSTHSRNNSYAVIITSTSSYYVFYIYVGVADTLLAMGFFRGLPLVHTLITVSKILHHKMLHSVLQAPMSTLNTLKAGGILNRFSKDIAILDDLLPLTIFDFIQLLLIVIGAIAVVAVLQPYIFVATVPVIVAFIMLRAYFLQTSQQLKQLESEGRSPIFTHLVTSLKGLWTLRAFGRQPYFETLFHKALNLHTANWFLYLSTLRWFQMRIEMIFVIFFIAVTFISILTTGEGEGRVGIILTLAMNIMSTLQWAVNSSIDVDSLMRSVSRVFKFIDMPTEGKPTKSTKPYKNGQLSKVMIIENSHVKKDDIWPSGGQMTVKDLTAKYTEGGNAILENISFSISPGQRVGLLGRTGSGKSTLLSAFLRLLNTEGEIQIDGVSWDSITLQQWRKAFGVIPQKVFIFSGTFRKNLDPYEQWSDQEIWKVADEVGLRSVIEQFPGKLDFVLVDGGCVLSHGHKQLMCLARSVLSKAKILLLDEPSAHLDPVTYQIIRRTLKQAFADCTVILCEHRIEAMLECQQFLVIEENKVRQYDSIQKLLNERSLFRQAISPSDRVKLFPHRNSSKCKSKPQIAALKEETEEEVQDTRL

Turning to `CC1(C)Cc2c(sc(NC(=O)c3cccnc3F)c2C(N)=O)C(C)(C)O1` [Compound 20, N-(3-carbamoyl-5,5,7,7-tetramethyl-5,7-dihydro-4H-thieno[2,3-c]pyran-2-yl)-2-fluoronicotinamide], the figures for the EC50 in assay [1] (setting [4]), in assay [2] (setting [5]) and in assay [3] were 3290 nM, 305 nM and 422 nM, respectively.
Regarding `CC1(C)Cc2c(sc(NC(=O)c3ccccc3O)c2C(N)=O)C(C)(C)O1` [Compound 3, 2-(2-hydroxybenzamido)-5,5,7,7-tetramethyl-5,7-dihydro-4H-thieno[2,3-c]pyran-3-carboxamide], the EC50 in assay [1] (setting [4]) worked out at 162 nM; in assay [2] (setting [5]), 4.4 nM; in assay [3], 6.46 nM.
In the case of `CC1(C)Cc2c(sc(NC(=O)c3nnc[nH]3)c2C(N)=O)C(C)(C)O1` [Compound 18, N-(3-carbamoyl-5,5,7,7-tetramethyl-5,7-dihydro-4H-thieno[2,3-c]pyran-2-yl)-1H-1,2,4-triazole-3-carboxamide], the EC50 in assay [1] (setting [4]) turned out to be 3330 nM; in assay [2] (setting [5]) it was 829 nM; in assay [3], 467 nM.
In the case of `NC(=O)c1c(NC(=O)c2ccccc2O)sc2c1CCOC2` [D, 2-(2-hydroxybenzamido)-5,7-dihydro-4H-thieno[2,3-c]pyran-3-carboxamide, reference compound], the 50% effective concentration (EC50) was over 10000 nM in assay [1] (comparative compounds, HEK293 cells) and 156 nM in assay [2] (comparative compounds).
Take `CN1CCc2[nH]nc(C(=O)Nc3sc4c(c3C(N)=O)CC(C)(C)OC4(C)C)c2C1` [Compound 31, N-(3-carbamoyl-5,5,7,7-tetramethyl-5,7-dihydro-4H-thieno[2,3-c]pyran-2-yl)-5-methyl-4,5,6,7-tetrahydro-1H-pyrazolo[4,3-c]pyridine-3-carboxamide]: the concentration giving a half-maximal response (EC50) in assay [2] (setting [5]) and in assay [3] was 354 nM each time.
With `CC(O)C(=O)Nc1sc2c(c1C(N)=O)CC(C)(C)OC2(C)C` (centres unmarked) [Compound 22, 2-(2-hydroxypropanamido)-5,5,7,7-tetramethyl-5,7-dihydro-4H-thieno[2,3-c]pyran-3-carboxamide], the results for the concentration giving a half-maximal response (EC50) in assay [2] (setting [5]) and in assay [3] were 219 nM and 83 nM, respectively.
For `NC(=O)c1c(NC(=O)c2ccccc2O)sc2c1CCNC2` [C, 2-(2-hydroxybenzamido)-4,5,6,7-tetrahydrothieno[2,3-c]pyridine-3-carboxamide, reference compound], in assay [2] (comparative compounds), the EC50 was over 10000 nM.
Consider `CC(=O)OC1(C(=O)Nc2sc3c(c2C(N)=O)CC(C)(C)OC3(C)C)CCOCC1` [Compound 41, 4-(3-carbamoyl-5,5,7,7-tetramethyl-5,7-dihydro-4H-thieno[2,3-c]pyran-2-ylcarbamoyl)tetrahydro-2H-pyran-4-yl acetate], for which the EC50 in assay [2] (setting [5]) amounted to 1740 nM; in assay [3], 602 nM.
With `CC(C)(C)CC(O)C(=O)Nc1sc2c(c1C(N)=O)CC(C)(C)OC2(C)C` (single isomer, unassigned) [Compound 109, 2-[[2-hydroxy-4,4-dimethyl-pentanoyl]amino]-5,5,7,7-tetramethyl-4H-thieno[2,3-c]pyran-3-carboxamide], the concentration giving a half-maximal response (EC50) stood at 3260 nM in assay [1] (setting [4]) and 4.32 nM in assay [3].
`CC1(C)Cc2c(sc(NC(=O)c3n[nH]cc3CO)c2C(N)=O)C(C)(C)O1` [Compound 88, N-(3-carbamoyl-5,5,7,7-tetramethyl-4H-thieno[2,3-c]pyran-2-yl)-4-(hydroxymethyl)-1H-pyrazole-3-carboxamide]: the values for the EC50 in assay [1] (setting [4]) and in assay [3] were 1170 nM and 145 nM, respectively.
Turning to `Cc1ncoc1C(=O)Nc1sc2c(c1C(N)=O)CC(C)(C)OC2(C)C` [Compound 135, N-(3-carbamoyl-5,5,7,7-tetramethyl-4H-thieno[2,3-c]pyran-2-yl)-4-methyl-oxazole-5-carboxamide], the concentration for a half-maximal effect (EC50) came out at 2030 nM in assay [1] (setting [4]) and 138 nM in assay [3].
Taken in the same sequence, the figures for `CC1(C)Cc2c(sc(NC(=O)CC(O)C3CC3)c2C(N)=O)C(C)(C)O1` (centres unmarked) [Compound 68, 2-[(3-cyclopropyl-3-hydroxy-propanoyl)amino]-5,5,7,7-tetramethyl-4H-thieno[2,3-c]pyran-3-carboxamide] were 3330 nM and 60 nM.
Turning to `CC1(C)Cc2c(sc(NC(=O)C(O)C3CC3)c2C(N)=O)C(C)(C)O1` (centres unmarked) [Compound 60, 2-[(2-cyclopropyl-2-hydroxy-acetyl)amino]-5,5,7,7-tetramethyl-4H-thieno[2,3-c]pyran-3-carboxamide], the values for the 50% effective concentration (EC50) in assay [1] (setting [4]) and in assay [3] were 6660 nM and 18.4 nM, respectively.
In the same order, the values of `Cn1ncc(C(=O)Nc2sc3c(c2C(N)=O)CC(C)(C)OC3(C)C)c1C(F)(F)F` [Compound 137, N-(3-carbamoyl-5,5,7,7-tetramethyl-4H-thieno[2,3-c]pyran-2-yl)-1-methyl-5-(trifluoromethyl)pyrazole-4-carboxamide] are 2660 nM and 128 nM.
Take `CC1(C)Cc2c(sc(NC(=O)C3CNC(=O)C3)c2C(N)=O)C(C)(C)O1` (centres unmarked) [Compound 29, N-(3-carbamoyl-5,5,7,7-tetramethyl-5,7-dihydro-4H-thieno[2,3-c]pyran-2-yl)-5-oxopyrrolidine-3-carboxamide]: the EC50 in assay [2] (setting [5]) worked out at 10000 nM.
As to `CC1(C)Cc2c(sc(NC(=O)c3ccccc3-c3ncn[nH]3)c2C(N)=O)C(C)(C)O1` [Compound 26, 2-(2-(1H-1,2,4-triazol-5-yl)benzamido)-5,5,7,7-tetramethyl-5,7-dihydro-4H-thieno[2,3-c]pyran-3-carboxamide], the EC50 in assay [2] (setting [5]) stood at 1270 nM.
`CC1(C)Cc2c(sc(NC(=O)c3cccc(F)n3)c2C(N)=O)C(C)(C)O1` [Compound 24, N-(3-carbamoyl-5,5,7,7-tetramethyl-5,7-dihydro-4H-thieno[2,3-c]pyran-2-yl)-6-fluoropicolinamide]: the figures for the EC50 in assay [2] (setting [5]) and in assay [3] were 314 nM and 234 nM, respectively.
Take `CC1(C)Cc2c(sc(NC(=O)c3cscn3)c2C(N)=O)C(C)(C)O1` [Compound 128, N-(3-carbamoyl-5,5,7,7-tetramethyl-4H-thieno[2,3-c]pyran-2-yl)thiazole-4-carboxamide]: the half-maximal effective concentration (EC50) in assay [1] (setting [4]) was determined as 878 nM; in assay [3] it was 34.2 nM.
Taken in the same sequence, the figures for `CC1(C)Cc2c(sc(NC(=O)C3CC3(F)F)c2C(N)=O)C(C)(C)O1` (centres unmarked) [Compound 48, 2-[(2,2-difluorocyclopropanecarbonyl)amino]-5,5,7,7-tetramethyl-4H-thieno[2,3-c]pyran-3-carboxamide] were 4570 nM and 66.6 nM.
As to `Cc1ccc(C(=O)Nc2sc3c(c2C(N)=O)CC(C)(C)OC3(C)C)cn1` [Compound 143, N-(3-carbamoyl-5,5,7,7-tetramethyl-4H-thieno[2,3-c]pyran-2-yl)-6-methyl-pyridine-3-carboxamide], the 50% effective concentration (EC50) in assay [1] (setting [4]) came to 2710 nM; in assay [3] it was 153 nM.
In the case of `CCCCc1ccc(C(=O)Nc2sc3c(c2C(N)=O)CC(C)(C)OC3(C)C)c(=O)[nH]1` [Compound 139, 6-butyl-N-(3-carbamoyl-5,5,7,7-tetramethyl-4H-thieno[2,3-c]pyran-2-yl)-2-oxo-1H-pyridine-3-carboxamide], the results for the EC50 in assay [1] (setting [4]) and in assay [3] were 577 nM and 57 nM, respectively.
In the case of `CC1(C)Cc2c(sc(NC(=O)c3ccno3)c2C(N)=O)C(C)(C)O1` [Compound 133, N-(3-carbamoyl-5,5,7,7-tetramethyl-4H-thieno[2,3-c]pyran-2-yl)isoxazole-5-carboxamide], the half-maximal effective concentration (EC50) in assay [1] (setting [4]) turned out to be 3330 nM; in assay [3], 552 nM.
